Measured values from ChEMBL document CHEMBL1135508, “Synthesis, SAR, and biological evaluation of oximino-piperidino-piperidine amides. 1. Orally bioavailable CCR5 receptor antagonists with potent anti-HIV activity” (J Med Chem, 2002).

Columns and labels:
U-87 MG = experiment: Concentration required to inhibit the entry of HIV-1 reporter virus (ADA) into U-87 cells by 50%; format: functional, cell-based, U-87MG ATCC
Rattus norvegicus = experiment: Area under curve value at 0-6 hr in rat pharmacokinetic screening after 10 mg/kg peroral dose; format: ADME, organism-based; set-up: time < 6 hr, dose 10 mg/kg, route oral; conditions: in vivo, po
[1] = target: T1, Muscarinic acetylcholine receptor M2 (Homo sapiens, UniProt P08172); experiment: Inhibitory activity against Muscarinic acetylcholine receptor M2
T1 sequence (P08172 whole entry): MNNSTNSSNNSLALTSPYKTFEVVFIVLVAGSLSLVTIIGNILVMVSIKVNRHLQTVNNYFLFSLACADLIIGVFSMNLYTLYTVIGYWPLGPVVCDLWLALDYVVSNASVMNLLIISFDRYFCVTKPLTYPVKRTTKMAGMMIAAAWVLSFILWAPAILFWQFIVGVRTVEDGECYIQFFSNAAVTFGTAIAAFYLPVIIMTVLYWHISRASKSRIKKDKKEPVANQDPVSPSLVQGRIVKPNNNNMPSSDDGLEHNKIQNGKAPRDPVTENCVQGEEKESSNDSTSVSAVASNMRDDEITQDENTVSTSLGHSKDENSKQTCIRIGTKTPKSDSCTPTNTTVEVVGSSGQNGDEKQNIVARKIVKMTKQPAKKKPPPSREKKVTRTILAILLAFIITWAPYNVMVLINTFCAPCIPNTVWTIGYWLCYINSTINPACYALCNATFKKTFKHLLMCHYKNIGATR

[2] = Percent of Absorption after IV administration at the dose 10/10 (IV/Po/mg/kg); format: ADME, organism-based; conditions: in vivo, 10 mg/kg, read-out: Absorption
[3] = Percent of bioavailability after oral administration at the dose 10/10 (IV/Po/mg/kg); format: ADME, organism-based; conditions: in vivo, 10 mg/kg, read-out: Bioavailabiility
[4] = Half life (t 1/2) after IV administration at the dose 10/10 (IV/Po/mg/kg); format: ADME, organism-based; conditions: in vivo, 10 mg/kg
[5] = C max after oral administration at the dose 2/2 (IV/Po/mg/kg); format: ADME, organism-based; conditions: cercopithecidae, in vivo, 2 mg/kg
[6] = Plasma clearance after IV administration at the dose 10/10 (IV/Po/mg/kg); format: ADME, organism-based; conditions: 10 mg/kg
[7] = Percent of Absorption after IV administration at the dose 2/2 (IV/Po/mg/kg); format: ADME, organism-based; conditions: cercopithecidae, in vivo, 2 mg/kg, read-out: Absorption
[8] = Percent of bioavailability after oral administration at the dose 2/2 (IV/Po/mg/kg); format: ADME, organism-based; conditions: cercopithecidae, in vivo, 2 mg/kg, read-out: Bioavailabiility
[9] = T max after oral administration at the dose 2/2 (IV/Po/mg/kg); format: ADME, organism-based; conditions: cercopithecidae, in vivo, 2 mg/kg
[10] = Plasma clearance after IV administration at the dose 2/2 (IV/Po/mg/kg); format: ADME, organism-based; conditions: cercopithecidae, 2 mg/kg
[11] = Half life (t 1/2) after IV administration at the dose 2/2 (IV/Po/mg/kg); format: ADME, organism-based; conditions: cercopithecidae, in vivo, 2 mg/kg
[12] = T max after oral administration at the dose 10/10 (IV/Po/mg/kg); format: ADME, organism-based; conditions: in vivo, 10 mg/kg
[13] = C max after oral administration at the dose 10/10 (IV/Po/mg/kg); format: ADME, organism-based; conditions: in vivo, 10 mg/kg

Row | Structure (SMILES) | IC50 (U-87 MG; Homo sapiens, U-87 MG) [nM] | AUC (Rattus norvegicus) [ng·h/mL] | other results
1 | CO/N=C(\c1ccc(Br)cc1)C1CCN(C2(C)CCN(C(=O)c3c(N)cccc3Cl)CC2)CC1 | 0.6 | 620 | –
2 | CCO/N=C(\c1ccc(Br)cc1)C1CCN(C2(C)CCN(C(=O)c3c(C)ccnc3C)CC2)CC1 | 0.2 | 2100 | –
3 | CO/N=C(\c1ccc(Br)cc1)C1CCN(C2(C)CCN(C(=O)c3c(C)cc[n+]([O-])c3C)CC2)CC1 | 5.6 | 2400 | –
4 | Cc1cccc(C)c1C(=O)N1CCC(C)(N2CCC(C(=O)c3ccc(Br)cc3)CC2)CC1 | 12 | – | –
5 | Cc1cccc(C)c1C(=O)N1CCC(C)(N2CCC(Cc3ccc(Br)cc3)CC2)CC1 | 10 | 40 | Ki [1]: 1320 nM
6 | Cc1cccc(C)c1C(=O)N1CCC(C)(N2CCC(Cc3ccc(Cl)cc3)CC2)CC1 | 23 | – | –
7 | COc1ccc(CC2CCN(C3(C)CCN(C(=O)c4c(C)cccc4C)CC3)CC2)cc1 | 26 | – | –
8 | Cc1cccc(C)c1C(=O)N1CCC(C)(N2CCC(Cc3ccc(I)cc3)CC2)CC1 | 9 | – | –
9 | Cc1cccc(C)c1C(=O)N1CCC(C)(N2CCC(/C(=N/O)c3ccc(Br)cc3)CC2)CC1 | 10 | – | –
10 | CCO/N=C(\c1ccc(C(F)(F)F)cc1)C1CCN(C2(C)CCN(C(=O)c3c(C)cc[n+]([O-])c3C)CC2)CC1 | 1.3 | 2200 | –
11 | CCO/N=C(\c1ccc(S(C)(=O)=O)cc1)C1CCN(C2(C)CCN(C(=O)c3c(C)cc[n+]([O-])c3C)CC2)CC1 | – | 0 | –
12 | CO/N=C(\c1ccc(Br)cc1)C1CCN(C2(C)CCN(C(=O)c3c(C)cccc3O)CC2)CC1 | 4 | 3000 | –
13 | CNC(=O)CO/N=C(\c1ccc(Br)cc1)C1CCN(C2(C)CCN(C(=O)c3c(C)cccc3C)CC2)CC1 | 4.4 | – | –
14 | CO/N=C(\c1ccc(OC(F)(F)F)cc1)C1CCN(C2(C)CCN(C(=O)c3c(C)cc[n+]([O-])c3C)CC2)CC1 | 5.1 | 3300 | –
15 | Cc1cccc(C)c1C(=O)N1CCC(C)(N2CCC(Cc3ccc(S(C)(=O)=O)cc3)CC2)CC1 | 7 | – | –
16 | Cc1cccc(C)c1C(=O)N1CCC(C)(N2CCC(Cc3ccc(C(F)(F)F)cc3)CC2)CC1 | 1 | – | –
17 | C=C(c1ccc(Br)cc1)C1CCN(C2(C)CCN(C(=O)c3c(C)cccc3C)CC2)CC1 | 1 | 590 | –
18 | Cc1cccc(C)c1C(=O)N1CCC(C)(N2CCC(/C(=N/OC(C)C)c3ccc(Br)cc3)CC2)CC1 | 1.7 | 1700 | –
19 | COc1ccc(S(=O)(=O)c2ccc(CC3CCN(C4CCN(C(=O)c5ccc(F)c6ccccc56)CC4)CC3)cc2)cc1 | – | – | Ki [1]: 1.3 nM
20 | CO/N=C(\c1ccc(Br)cc1)C1CCN(C2(C)CCN(C(=O)c3c(C)cccc3N)CC2)CC1 | 0.5 | 1300 | –
21 | Cc1cccc(C)c1C(=O)N1CCC(C)(N2CCC(Cc3ccccc3Br)CC2)CC1 | 1300 | – | –

Row | Structure (SMILES) | IC50 (U-87 MG; Homo sapiens, U-87 MG) [nM] | AUC (Rattus norvegicus) [ng·h/mL] | other results
22 | CCO/N=C(\c1ccc(Br)cc1)C1CCN(C2(C)CCN(C(=O)c3c(C)cc(C)nc3O)CC2)CC1 | 6.4 | – | –
23 | CCO/N=C(\c1ccc(Br)cc1)C1CCN(C2(C)CCN(C(=O)c3c(C)cc(O)nc3C)CC2)CC1 | 0.9 | 210 | –
24 | Cc1ccc(CC2CCN(C3(C)CCN(C(=O)c4c(C)cccc4C)CC3)CC2)cc1 | 38 | – | –
25 | Cc1cccc(C)c1C(=O)N1CCC(C)(N2CCC(Cc3cccc(Br)c3)CC2)CC1 | 41 | – | –
26 | CO/N=C(/c1ccc(Br)cc1)C1CCN(C2(C)CCN(C(=O)c3c(C)cccc3C)CC2)CC1 | 2.8 | 1200 | –
27 | Cc1cccc(C)c1C(=O)N1CCC(C)(N2CCC(Cc3ccc(OC(F)(F)F)cc3)CC2)CC1 | 5 | – | –
28 | CCO/N=C(\c1ccc(Br)cc1)C1CCN(C2(C)CCN(C(=O)c3c(C)ccc[n+]3[O-])CC2)CC1 | 1.7 | 3200 | –
29 | CCO/N=C(\c1ccc(OC(F)(F)F)cc1)C1CCN(C2(C)CCN(C(=O)c3c(C)cc[n+]([O-])c3C)CC2)CC1 | 1.8 | 3000 | –
30 | CO/N=C(\c1ccc(C(F)(F)F)cc1)C1CCN(C2(C)CCN(C(=O)c3c(C)cc[n+]([O-])c3C)CC2)CC1 | 1.1 | 350 | –
31 | CCO/N=C(\c1ccc(Br)cc1)C1CCN(C2(C)CCN(C(=O)c3c(F)cccc3C(F)(F)F)CC2)CC1 | 2.1 | 2700 | –
32 | CO/N=C(\c1ccc(Br)cc1)C1CCN(C2(C)CCN(C(=O)c3c(C)ccnc3C)CC2)CC1 | 0.5 | 1900 | –
33 | Cc1cccc(C)c1C(=O)N1CCC(C)(N2CCC(C(O)c3ccc(Br)cc3)CC2)CC1 (stereo unspecified) | 76 | – | –
34 | CCO/N=C(\c1ccc(Br)cc1)C1CCN(C2(C)CCN(C(=O)c3c(C)cccc3C)CC2)CC1 | 1.1 | 1000 | –
35 | CCO/N=C(/c1ccc(Br)cc1)C1CCN(C2(C)CCN(C(=O)c3c(C)cccc3C)CC2)CC1 | 9.2 | – | –
36 | Cc1cccc(C)c1C(=O)N1CCC(C)(N2CCC(/C(=N/OC(C)(C)C)c3ccc(Br)cc3)CC2)CC1 | 5.7 | – | –
37 | CCO/N=C(\c1ccc(Cl)cc1)C1CCN(C2(C)CCN(C(=O)c3c(C)cc[n+]([O-])c3C)CC2)CC1 | 1.4 | 1700 | –
38 | CCO/N=C(\c1ccc(Br)cc1)C1CCN(C2(C)CCN(C(=O)c3cccnc3C)CC2)CC1 | 1.4 | – | –
39 | CO/N=C(\c1ccc(Br)cc1)C1CCN(C2(C)CCN(C(=O)c3c(C)cccc3C)CC2)CC1 (stereo in doubt) | – | 2100 | IC50 (U-87 MG; u-87mg atcc): 1.4 nM
40 | CO/N=C(\c1ccc(Br)cc1)C1CCN(C2(C)CCN(C(=O)c3c(C)cccc3C)CC2)CC1 (stereo in doubt; 14c (Z)) | 1.2 | 1400 | –
41 | CCO/N=C(\c1ccc(Br)cc1)C1CCN(C2(C)CCN(C(=O)c3c(C)cc[n+]([O-])c3C)CC2)CC1 [ANCRIVIROC] | 0.6 | 6500 | Fa [2]: 57%; bioavailability [3]: 63%; half-life [4]: 5.4 h; Cmax [5]: 760 nM; clearance [6]: 12.8 mL/min/kg; Fa [7]: 80%; bioavailability [8]: 52%; Tmax [9]: 2 h; clearance [10]: 4.28 mL/min/kg; half-life [11]: 6 h; Tmax [12]: 0.5 h; Cmax [13]: 2500 nM
